# Reference: patent US20090062388A1, “Use of acetyl L-carnitine for the preparation of a medication for the preventive therapy for pain” (Sigma-Tau Industrie Farmaceutiche Riunite S.p.A., priority 2001, published 2009)
# Where two headings read alike, the source gives them in different places.
# Tested on: mice
# Assay type: in vivo
# Settings: for antagonism of the analgesia induced by acetyl L-carnitine: acetyl L-carnitine 100 mg/kg BID SC for 7 days, hot plate; for Hot plate Licking latency: antagonist pre-treatment + PS (no acetyl L-carnitine)
# Protocol: The analgesia induced by the acetyl L-carnitine (100 mg/kg BID, SC for 7 days) was determined in presence of some antagonists of some neurotransmission systems deeply involved in the regulation of pain threshold, and in particular the naloxone (opioid antagonist), the CGP-35348 (GABAB antagonist) and the alpha-methyl-p-tyrosine (inhibitor of the synthesis of cathecolamines).
# In agreement with the standard procedures known by the person skilled in the art, the doses used for any antagonist were the minimum required to prevent the analgesia induced by morphine (7 mg/kg SC) (1, 100 e 200 mg/kg IP), baclofen (4 mg/kg SC) and amphetamine (1 mg/kg SC) (non-reported data) respectively.
# [1] = dose (naloxone 1, CGP 35348 100, alpha-M-p-T 200, atropine 5 mg/kg, HC-3 1 μg, pirenzepine 0.1 μg, S-(−)-ET-126 0.1 μg ICV), before treatment
Structure (SMILES),antagonism of the analgesia induced by acetyl L-carnitine,Hot plate Licking latency (after treatment 15 min) [s],Hot plate Licking latency (after treatment 30 min) [s],Hot plate Licking latency (after treatment 45 min) [s],Hot plate Licking latency [1] [s]
"CN1CCC(OC(=O)[C@H](CO)c2ccccc2)CC1 [S-(−)-ET-126, reference compound]",capable to antagonize the increase of the pain threshold,15.3 ± 1.8,16.2 ± 1.9,16.1 ± 2.0,15.0 ± 1.0
"CN1CCN(CC(=O)N2c3ccccc3C(=O)Nc3cccnc32)CC1 [Pirenzepine, pirenzepine, reference compound]",capable to antagonize the increase of the pain threshold,13.9 ± 1.5,14.5 ± 1.8,15.5 ± 1.5,13.6 ± 0.8
"CCOC(OCC)P(=O)(O)CCCN [CGP 35348, reference compound]",,12.4 ± 1.0,12.6 ± 1.3,12.2 ± 1.6,14.4 ± 0.8
"C=CCN1CC[C@]23c4c5ccc(O)c4O[C@H]2C(=O)CC[C@@]3(O)[C@H]1C5 [Naloxone, naloxone, reference compound]",,13.3 ± 1.3,13.1 ± 1.1,14.2 ± 1.3,14.0 ± 0.7
"CN1[C@@H]2CC[C@H]1C[C@@H](OC(=O)C(CO)c1ccccc1)C2 (some centres unmarked) [Atropine, atropine, reference compound]",capable to antagonize the increase of the pain threshold,13.7 ± 1.1,15.4 ± 1.2,13.1 ± 1.9,14.1 ± 0.9
"C[N+]1(C)CCOC(O)(c2ccc(-c3ccc(C4(O)C[N+](C)(C)CCO4)cc3)cc2)C1.[Br-].[Br-] (centres unmarked) [HC-3, hemicholinium-3, reference compound]",capable to antagonize the increase of the pain threshold,13.7 ± 1.1,15.4 ± 1.2,13.1 ± 1.9,14.1 ± 0.9
"CC(N)(Cc1ccc(O)cc1)C(=O)O (stereo not drawn) [Alpha-M-p-T, alpha-methyl-p-tyrosine, reference compound]",,15.4 ± 1.6,16.1 ± 1.8,13.6 ± 1.5,14.6 ± 0.9
